PMC6669322, “Small Molecule Binding to Alzheimer Risk Factor CD33 Promotes Aβ Phagocytosis” (iScience, 2019)

Assays:
[1] = biological target: T1, CD33 F21A (Homo sapiens, UniProt P20138, F21A); assay: SNAP-tag homogeneous time-resolved fluorescence binding assay, CD33 F21A; conditions: binding affinity, F21A vs WT
T1 construct: human CD33 ORF (NM_001772.3), lacking its signal peptide; expressed in transfected cells; host or cells: HEK293T, transient, pT8-SNAP vector
Protocol: We then used our structural data to design mutations of key residues interacting with P22 to assess which interactions were the most important for binding affinity. The residues were mutated into alanine, and the effect of these mutations on P22 binding affinity was assessed using a SNAP-tag homogeneous time-resolved fluorescence binding assay (see Transparent Methods and Figures 3E–3G). The R119A mutation, which destroys the salt bridge between P22 and CD33, was one of the most detrimental to binding (>30-fold loss) (Figure 2C and Table S4). […]
HEK293T cells were cultured in DMEM (ThermoFisher Scientific # 11965092) containing 10% FBS (Hyclone # SH30070.03) and 1% Penicillin-Streptomycin (ThermoFisher Scientific # 15140122) and transfected using Fugene HD (Promega # E2312) in 10 cm plates. […] The cells were counted, centrifuged and resuspended in PBS at a concentration of 1,000 cells/μL and 10 μL were plated into each well. […] Non-specific binding was assessed by competition with 100 μM of the non-labeled P22, as well as in control (Snap-tagged dopamine D2R receptor)-transfected cells.
Fluorescence was read with a PHERAstar plate reader using an excitation of 337 nm and emissions of 620 and 665 nm. […]

[2] = tested on: CD33; set-up: method as in Rillahan et al., 2014; conditions: estimated, flow cytometry assay; ref Rillahan et al., 2014; cited from earlier work

T1 sequence (P20138 18-364 F21A): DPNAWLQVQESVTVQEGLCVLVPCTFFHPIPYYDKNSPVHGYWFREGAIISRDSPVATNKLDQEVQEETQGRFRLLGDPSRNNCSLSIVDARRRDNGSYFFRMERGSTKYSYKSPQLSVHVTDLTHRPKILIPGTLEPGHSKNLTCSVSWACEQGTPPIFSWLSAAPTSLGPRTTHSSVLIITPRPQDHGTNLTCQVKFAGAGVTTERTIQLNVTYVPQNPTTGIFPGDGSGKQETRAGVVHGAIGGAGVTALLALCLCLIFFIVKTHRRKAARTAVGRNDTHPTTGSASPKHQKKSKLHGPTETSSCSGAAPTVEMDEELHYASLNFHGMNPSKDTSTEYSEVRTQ

Fold-decrease compared to WT [1]: 6 fold
SMILES: Cc1cc(C(=O)NC[C@@H](O)[C@@H](O)[C@@H]2O[C@@](OC[C@H]3O[C@@H](O[C@H]4[C@H](O)[C@@H](O)[C@H](OCCN)O[C@@H]4CO)[C@H](O)[C@@H](O)[C@H]3O)(C(=O)O)C[C@H](O)[C@H]2NC(=O)Cn2cc(C3CCCCC3)nn2)cc(C)c1O [P22, β-D-Glucopyranoside, 2-aminoethyl O-[N-[2-(4-cyclohexyl-1H-1,2,3-triazol-1-yl)acetyl]-9-deoxy-9-[(4-hydroxy-3,5-dimethylbenzoyl)amino]-α-neuraminosyl] (2→6)-O-β-D-galactopyranosyl-(1→4)-]
IC50 [2]: 11 µM
